Numbers after ± are expanded uncertainties.
Assay: excess molar enthalpy (molar enthalpy of mixing); xn = mol fraction of the nth substance listed
Conditions: 101.3 kPa, Liquid, Flow calorimetry

CCOC(=O)CC(C)=O [ethyl 3-oxobutanoate] + CCOC(C)=O
excess molar enthalpy [kJ/mol]
Conditions	298.15 K	313.15 K	328.15 K	338.15 K	348.15 K
x1 = 0.1005	0.025 ± 0.001	0.025 ± 0.001	0.021 ± 0.001	0.019 ± 0.001	0.017 ± 0.001
x1 = 0.1995	0.041 ± 0.001	0.042 ± 0.001	0.035 ± 0.001	0.033 ± 0.001	0.029 ± 0.001
x1 = 0.2996	0.052 ± 0.002	0.053 ± 0.002	0.044 ± 0.001	0.041 ± 0.001	0.036 ± 0.001
x1 = 0.3495	0.054 ± 0.002	0.057 ± 0.002	0.047 ± 0.002	0.044 ± 0.001	0.039 ± 0.001
x1 = 0.3995	0.056 ± 0.002	0.059 ± 0.002	0.048 ± 0.002	0.046 ± 0.001	0.041 ± 0.001
x1 = 0.4496	0.057 ± 0.002	0.061 ± 0.002	0.049 ± 0.002	0.047 ± 0.002	0.042 ± 0.001
x1 = 0.4998	0.056 ± 0.002	0.061 ± 0.002	0.048 ± 0.002	0.046 ± 0.001	0.042 ± 0.001
x1 = 0.55	0.055 ± 0.002	0.06 ± 0.002	0.047 ± 0.002	0.045 ± 0.001	0.041 ± 0.001
x1 = 0.6001	0.052 ± 0.002	0.058 ± 0.002	0.044 ± 0.001	0.043 ± 0.001	0.039 ± 0.001
x1 = 0.6502	0.049 ± 0.002	0.056 ± 0.002	0.041 ± 0.001	0.041 ± 0.001	0.038 ± 0.001
x1 = 0.7001	0.046 ± 0.001	0.052 ± 0.002	0.037 ± 0.001	0.037 ± 0.001	0.035 ± 0.001
x1 = 0.7994	0.035 ± 0.001	0.042 ± 0.001	0.027 ± 0.001	0.029 ± 0.001	0.027 ± 0.001
x1 = 0.9004	0.019 ± 0.001	0.028 ± 0.001	0.018 ± 0.001	0.017 ± 0.001	0.017 ± 0.001

CCOC(=O)CC(C)=O [ethyl 3-oxobutanoate] + CCCCCO
excess molar enthalpy [kJ/mol]
Conditions	298.15 K	313.15 K	328.15 K	338.15 K	348.15 K
x1 = 0.0998	0.913 ± 0.02	1.05 ± 0.023	1.12 ± 0.025	1.18 ± 0.026	1.18 ± 0.026
x1 = 0.1996	1.38 ± 0.03	1.67 ± 0.036	1.85 ± 0.04	1.92 ± 0.042	1.93 ± 0.042
x1 = 0.3006	1.71 ± 0.037	2.05 ± 0.044	2.3 ± 0.049	2.39 ± 0.051	2.39 ± 0.051
x1 = 0.3505	1.81 ± 0.039	2.18 ± 0.047	2.46 ± 0.052	2.54 ± 0.054	2.54 ± 0.054
x1 = 0.4001	1.88 ± 0.04	2.27 ± 0.049	2.54 ± 0.054	2.63 ± 0.056	2.64 ± 0.056
x1 = 0.4504	1.93 ± 0.041	2.32 ± 0.05	2.6 ± 0.055	2.68 ± 0.057	2.69 ± 0.057
x1 = 0.5003	1.95 ± 0.042	2.33 ± 0.05	2.6 ± 0.056	2.68 ± 0.057	2.69 ± 0.057
x1 = 0.5498	1.94 ± 0.042	2.31 ± 0.049	2.56 ± 0.055	2.63 ± 0.056	2.64 ± 0.056
x1 = 0.6	1.9 ± 0.041	2.26 ± 0.048	2.49 ± 0.053	2.54 ± 0.054	2.55 ± 0.054
x1 = 0.6497	1.84 ± 0.04	2.16 ± 0.046	2.35 ± 0.05	2.4 ± 0.051	2.4 ± 0.051
x1 = 0.7002	1.74 ± 0.038	2.02 ± 0.043	2.18 ± 0.047	2.2 ± 0.047	2.21 ± 0.047
x1 = 0.7995	1.43 ± 0.031	1.59 ± 0.035	1.67 ± 0.036	1.67 ± 0.036	1.67 ± 0.036
x1 = 0.9004	0.851 ± 0.019	0.898 ± 0.021	0.928 ± 0.021	0.93 ± 0.021	0.933 ± 0.021

CCOC(=O)CC(C)=O [ethyl 3-oxobutanoate] + CCC(C)O
excess molar enthalpy [kJ/mol]
Conditions	298.15 K	313.15 K	328.15 K	338.15 K	348.15 K
x1 = 0.1002	0.98 ± 0.022	1.13 ± 0.025	1.2 ± 0.027	1.23 ± 0.027	1.23 ± 0.027
x1 = 0.1997	–	1.76 ± 0.038	1.94 ± 0.042	1.97 ± 0.043	1.98 ± 0.043
x1 = 0.2008	1.52 ± 0.033	–	–	–	–
x1 = 0.2998	–	2.16 ± 0.046	2.38 ± 0.051	2.44 ± 0.052	2.44 ± 0.052
x1 = 0.3009	1.84 ± 0.04	–	–	–	–
x1 = 0.3999	–	2.38 ± 0.051	2.61 ± 0.056	2.67 ± 0.057	2.67 ± 0.057
x1 = 0.4011	2.02 ± 0.043	–	–	–	–
x1 = 0.45	–	2.44 ± 0.052	2.64 ± 0.056	2.7 ± 0.058	2.71 ± 0.058
x1 = 0.4512	2.06 ± 0.044	–	–	–	–
x1 = 0.5004	–	2.44 ± 0.052	2.63 ± 0.056	2.68 ± 0.057	2.69 ± 0.057
x1 = 0.5017	2.08 ± 0.045	–	–	–	–
x1 = 0.5499	–	2.41 ± 0.051	2.58 ± 0.055	2.61 ± 0.056	2.62 ± 0.056
x1 = 0.5512	2.06 ± 0.044	–	–	–	–
x1 = 0.5995	–	2.32 ± 0.05	2.48 ± 0.053	2.5 ± 0.053	2.51 ± 0.054
x1 = 0.6009	2.01 ± 0.043	–	–	–	–
x1 = 0.6493	–	2.21 ± 0.047	2.33 ± 0.05	2.33 ± 0.05	2.34 ± 0.05
x1 = 0.6507	1.93 ± 0.041	–	–	–	–
x1 = 0.7007	1.8 ± 0.039	2.03 ± 0.044	2.12 ± 0.045	2.12 ± 0.046	2.12 ± 0.046
x1 = 0.8005	1.42 ± 0.031	1.55 ± 0.034	1.59 ± 0.035	1.59 ± 0.035	1.6 ± 0.035
x1 = 0.8999	0.805 ± 0.018	0.872 ± 0.02	0.882 ± 0.02	0.885 ± 0.02	0.889 ± 0.02

CCOC(=O)CC(C)=O [ethyl 3-oxobutanoate] + CCCCO
excess molar enthalpy [kJ/mol]
Conditions	298.15 K	313.15 K	328.15 K	338.15 K	348.15 K
x1 = 0.1003	0.913 ± 0.02	1 ± 0.022	1.12 ± 0.025	1.14 ± 0.025	1.16 ± 0.026
x1 = 0.2002	1.41 ± 0.031	1.56 ± 0.034	1.81 ± 0.039	1.86 ± 0.04	1.9 ± 0.041
x1 = 0.3	1.71 ± 0.037	1.94 ± 0.042	2.25 ± 0.048	2.31 ± 0.049	2.35 ± 0.05
x1 = 0.3502	1.81 ± 0.039	2.07 ± 0.044	2.38 ± 0.051	2.45 ± 0.052	2.49 ± 0.053
x1 = 0.3999	1.88 ± 0.04	2.15 ± 0.046	2.47 ± 0.053	2.53 ± 0.054	2.58 ± 0.055
x1 = 0.45	1.92 ± 0.041	2.22 ± 0.048	2.51 ± 0.054	2.58 ± 0.055	2.61 ± 0.056
x1 = 0.5005	1.94 ± 0.041	2.22 ± 0.048	2.51 ± 0.054	2.56 ± 0.055	2.59 ± 0.055
x1 = 0.5501	1.92 ± 0.041	2.19 ± 0.047	2.47 ± 0.053	2.51 ± 0.053	2.53 ± 0.054
x1 = 0.5999	1.88 ± 0.04	2.12 ± 0.045	2.37 ± 0.051	2.42 ± 0.052	2.42 ± 0.052
x1 = 0.6499	1.8 ± 0.039	2.02 ± 0.043	2.25 ± 0.048	2.27 ± 0.049	2.27 ± 0.049
x1 = 0.7	1.69 ± 0.036	1.86 ± 0.04	2.06 ± 0.044	2.08 ± 0.045	2.08 ± 0.045
x1 = 0.8005	1.34 ± 0.029	1.42 ± 0.031	1.55 ± 0.034	1.55 ± 0.034	1.56 ± 0.034
x1 = 0.9007	0.767 ± 0.018	0.799 ± 0.018	0.841 ± 0.019	0.842 ± 0.019	0.847 ± 0.02

CCOC(=O)CC(C)=O [ethyl 3-oxobutanoate] + O
excess molar enthalpy [kJ/mol]
Conditions	298.15 K	313.15 K	328.15 K	338.15 K	348.15 K
x1 = 0.1502	0.175 ± 0.005	0.276 ± 0.007	0.386 ± 0.009	0.472 ± 0.011	0.558 ± 0.013
x1 = 0.2994	0.428 ± 0.01	0.597 ± 0.013	0.783 ± 0.017	0.929 ± 0.02	1.09 ± 0.024
x1 = 0.4491	0.684 ± 0.015	0.92 ± 0.02	1.19 ± 0.026	1.4 ± 0.03	1.62 ± 0.035
x1 = 0.6014	0.923 ± 0.02	1.23 ± 0.027	1.57 ± 0.034	1.82 ± 0.039	1.93 ± 0.041
x1 = 0.6499	–	–	–	1.79 ± 0.038	1.89 ± 0.04
x1 = 0.7001	1.08 ± 0.024	1.4 ± 0.03	1.58 ± 0.034	1.7 ± 0.036	1.79 ± 0.038
x1 = 0.7514	1.13 ± 0.024	1.32 ± 0.028	1.47 ± 0.032	1.56 ± 0.034	1.61 ± 0.035
x1 = 0.797	–	–	–	1.38 ± 0.03	1.41 ± 0.031
x1 = 0.8474	0.87 ± 0.019	0.998 ± 0.022	1.07 ± 0.024	–	–
x1 = 0.9034	0.6 ± 0.014	0.696 ± 0.016	0.736 ± 0.017	0.778 ± 0.018	0.786 ± 0.018
x1 = 0.9496	0.32 ± 0.009	0.385 ± 0.011	0.39 ± 0.011	–	–
